Test results reported in publication PMC12616515, “Thermostable Bacterial Esterases From Lipase Family 1.5 Degrade Compostable Polyesters PBAT and PBSA” (MicrobiologyOpen, 2025).

What was measured:
Cl_EstA = biological target: T1, Cl_EstA (Clostridium botulinum, UniProt A5I055)
T1 construct: gene lipA

Tl_Est64 = biological target: T2, Tl_Est64 (Thermosyntropha lipolytica, UniProt A0A1M5LUW5); assay: pNP release, absorbance […] nm; assay type: biochemical
T2 construct: gene SAMN02745221_00755
T2 sequence (A0A1M5LUW5 29-416): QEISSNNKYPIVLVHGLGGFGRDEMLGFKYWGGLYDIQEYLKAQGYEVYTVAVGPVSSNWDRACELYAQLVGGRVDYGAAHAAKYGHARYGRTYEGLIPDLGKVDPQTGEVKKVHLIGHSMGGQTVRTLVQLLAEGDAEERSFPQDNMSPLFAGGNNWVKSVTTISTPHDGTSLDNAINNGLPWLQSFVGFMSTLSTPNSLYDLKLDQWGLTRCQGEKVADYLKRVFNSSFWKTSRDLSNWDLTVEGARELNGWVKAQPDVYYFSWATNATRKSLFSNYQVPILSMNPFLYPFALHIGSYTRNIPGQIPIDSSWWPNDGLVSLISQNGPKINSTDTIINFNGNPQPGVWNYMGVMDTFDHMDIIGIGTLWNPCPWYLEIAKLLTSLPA

Dt_Est = biological target: T3, Dt_Est (Desulfurispora thermophila, UniProt Z9TUI6NBX6); assay: pNP release, absorbance […] nm; assay type: biochemical
T3 sequence (Z9TUI6NBX6 32-423): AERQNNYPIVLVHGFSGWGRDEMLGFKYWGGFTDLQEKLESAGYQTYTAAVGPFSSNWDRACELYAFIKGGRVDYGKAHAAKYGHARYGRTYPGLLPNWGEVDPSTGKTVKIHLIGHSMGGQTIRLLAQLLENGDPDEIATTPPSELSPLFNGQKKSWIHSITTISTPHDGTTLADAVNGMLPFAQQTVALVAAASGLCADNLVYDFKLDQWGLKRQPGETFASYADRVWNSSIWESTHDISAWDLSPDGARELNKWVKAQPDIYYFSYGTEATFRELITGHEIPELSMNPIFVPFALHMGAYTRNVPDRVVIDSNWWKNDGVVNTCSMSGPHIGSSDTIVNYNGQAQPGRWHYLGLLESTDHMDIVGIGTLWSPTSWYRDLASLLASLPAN

T1 sequence (A5I055 1-480): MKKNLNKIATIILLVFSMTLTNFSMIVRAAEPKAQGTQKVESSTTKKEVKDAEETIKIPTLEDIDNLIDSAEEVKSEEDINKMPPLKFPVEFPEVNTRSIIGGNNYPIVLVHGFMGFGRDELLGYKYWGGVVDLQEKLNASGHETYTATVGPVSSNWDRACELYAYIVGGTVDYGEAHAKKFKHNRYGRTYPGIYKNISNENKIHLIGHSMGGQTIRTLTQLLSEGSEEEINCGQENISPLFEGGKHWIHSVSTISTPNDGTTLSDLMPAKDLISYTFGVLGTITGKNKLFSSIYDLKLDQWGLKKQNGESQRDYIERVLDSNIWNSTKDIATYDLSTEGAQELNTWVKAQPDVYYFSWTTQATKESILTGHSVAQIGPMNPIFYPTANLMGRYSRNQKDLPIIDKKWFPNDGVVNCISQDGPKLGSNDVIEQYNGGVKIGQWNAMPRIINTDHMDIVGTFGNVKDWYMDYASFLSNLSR

CC(=O)Oc1ccc([N+](=O)[O-])cc1 [pNP acetate]
pNP release, absorbance 405 nm (Cl_EstA): except Cl_EstA, which had the best activity with pNP acetate

CCCCC(=O)Oc1ccc([N+](=O)[O-])cc1 [pNP valerate]
pNP release, absorbance 405 nm (Tl_Est64): Tl_Est64 showed the highest overall activity with the substrates pNP butyrate and pNP valerate

CCCCCCCC(=O)Oc1ccc([N+](=O)[O-])cc1 [pNP octanoate]
pNP release, absorbance 405 nm (Dt_Est): Dt_Est showed the highest activity with pNP octanoate

CCCC(=O)Oc1ccc([N+](=O)[O-])cc1 [pNP butyrate]
pNP release, absorbance 405 nm (Tl_Est64): Tl_Est64 showed the highest overall activity with the substrates pNP butyrate and pNP valerate
